One assay has as its system Strep. Faecalis HH 34358. As to the kind of experiment: MIC in vitro (Table 1), Strep. Faecalis HH 34358. Type of assay: cell-based. The following applies: Enterococcus faecalis, in vitro, Strep. Faecalis HH 34358; read-out: MIC. An excerpt: (§1) Compound names corresponding to numbers are given in the experimental section. For comparative purposes, data for cephamandole, which is 7-mandelamido-3-(1-methyltetrazol-5-ylthiomethyl)-3-cephem-4-carboxylic acid, is also given in Tables 1 and 2.

In the next assay the test system is S. aureus SK 23390. As to the kind of experiment: MIC in vitro (Table 1), S. aureus SK 23390. Type of assay: cell-based. The following applies: Staphylococcus aureus.
Excerpt: as §1

Assay [1] relates to Entero. aerog. ATCC 13048. As to the kind of experiment: MIC in vitro (Table 1), Entero. aerog. ATCC 13048. Type of assay: cell-based. The following applies: in vitro, Entero. aerog. ATCC 13048; read-out: MIC.
Excerpt: as §1

The next assay has as its system Serra. Marc. ATCC 13880. As to the kind of experiment: MIC in vitro (Table 1), Serra. Marc. ATCC 13880. Type of assay: cell-based. As to conditions: in vitro, Serra. Marc. ATCC 13880; read-out: MIC.
Excerpt: as §1

A further assay concerns Kleb. pneumo. SK 1200. As to the kind of experiment: MIC in vitro (Table 1), Kleb. pneumo. SK 1200. It is filed as cell-based.
Excerpt: as §1

Another assay deals with Salmonella ATCC 12176. As to the kind of experiment: MIC in vitro (Table 1), Salmonella ATCC 12176. Type of assay: cell-based. As to conditions: Salmonella, ATCC12176, in vitro, read-out: MIC. An excerpt: (§2) The compounds of Formula I have antibacterial activity against both Gram-positive and Gram-negative organisms. […] Compound names corresponding to numbers are given in the experimental section. For comparative purposes, data for cephamandole, which is 7-mandelamido-3-(1-methyltetrazol-5-ylthiomethyl)-3-cephem-4-carboxylic acid, is also given in Tables 1 and 2.

A further assay deals with Entero. cloacae HH 31254. As to the kind of experiment: MIC in vitro (Table 1), Entero. cloacae HH 31254. Type of assay: cell-based. The following applies: Enterobacter cloacae.
Excerpt: as §1

The test system of a further assay is E. coli SK 12140. As to the kind of experiment: MIC in vitro (Table 1), E. coli SK 12140. It is filed as cell-based. As to conditions: Escherichia coli, SK12140, in vitro.
Excerpt: as §1

The subject of another assay is E. coli HH 33779. As to the kind of experiment: MIC in vitro (Table 1), E. coli HH 33779. Type of assay: cell-based. As to conditions: Escherichia coli, HH33779, in vitro, E. coli HH 33779; read-out: MIC.
Excerpt: as §1

The subject of the next assay is Shigella HH 117. As to the kind of experiment: MIC in vitro (Table 1), Shigella HH 117. Type of assay: cell-based. The following applies: Shigella, HH117, in vitro, read-out: MIC.
Excerpt: as §2

The test system of another assay is S. aureus HH 127. As to the kind of experiment: MIC in vitro (Table 1), S. aureus HH 127. Type of assay: cell-based. As to conditions: Staphylococcus aureus, HH127, in vitro, S. aureus HH 127; read-out: MIC.
Excerpt: as §1

The subject of the next assay is Kleb. pneumo. SK 4200. As to the kind of experiment: MIC in vitro (Table 1), Kleb. pneumo. SK 4200. Type of assay: cell-based.
Excerpt: as §1

The test system of another assay is Pseudo. sp. HH 63. As to the kind of experiment: MIC in vitro (Table 1), Pseudo. sp. HH 63. The following applies: in vitro, Pseudo. sp. HH 63; read-out: MIC. Type of assay: cell-based.
Excerpt: as §2

Another assay deals with Proteus morgani 179. As to the kind of experiment: MIC in vitro (Table 1), Proteus morgani 179. The following applies: read-out: MIC. It is filed as cell-based.
Excerpt: as §1

A further assay deals with Kleb. pneumo. 4200. As to the kind of experiment: In vivo mouse protection (Table 2), Kleb. pneumo. 4200.
Excerpt: as §1

A further assay has as its system S. villaluz. As to the kind of experiment: MIC in vitro (Table 1), S. villaluz. It is filed as cell-based. As to conditions: read-out: MIC.
Excerpt: as §2

The subject of another assay is E. coli 12140. As to the kind of experiment: In vivo mouse protection (Table 2), E. coli 12140.
Excerpt: as §1

Where [2] appears, read: SK23390, in vitro, S. aureus SK 23390, read-out: MIC.
The mark [3] stands for this setting: in vitro, Kleb. pneumo. SK 4200, read-out: MIC.
Where [4] appears, read: Escherichia coli, 12140, po, E. coli 12140, p.o.
[5] abbreviates: Escherichia coli, 12140, sc, E. coli 12140, s.c.
[6] abbreviates: HH31254, in vitro, Entero. cloacae HH 31254, read-out: MIC.

In brackets after ≈: the same amount, converted by molar mass. Where two headings read alike, the source gives them in different places.

For the molecule `NC(=O)Cn1nnnc1SCC1=C(C(=O)O)N2C(=O)C(NC(=O)[C@H](N)c3ccc(O)cc3)[C@H]2SC1` (stereo partly drawn) [VI, 7-(D-α-Amino-4-hydroxyphenylacetamido) -3-(1-carbamoylmethyltetrazol-5-ylthiomethyl) -3-cephem-4-carboxylic acid], the MIC was determined as 50 µg/mL (≈ 96.1 µM) with Strep. Faecalis HH 34358; 6.3 µg/mL (≈ 12.1 µM) with S. aureus SK 23390 (setting [2]); 6.3 µg/mL (≈ 12.1 µM) in assay [1]; 100 µg/mL (≈ 192 µM) in the assay with Serra. Marc. ATCC 13880; 6.3 µg/mL (≈ 12.1 µM) in the assay on Kleb. pneumo. SK 1200 (read-out: MIC); 1.6 µg/mL (≈ 3.07 µM) in the assay with Salmonella ATCC 12176. In addition, the minimal inhibitory concentration (MIC) in the assay on Entero. cloacae HH 31254 (HH31254) is 3.1 µg/mL (≈ 5.96 µM); in the assay with E. coli SK 12140 (read-out: MIC) it was 6.3 µg/mL (≈ 12.1 µM); in the assay with E. coli HH 33779 it was 6.3 µg/mL (≈ 12.1 µM); with Shigella HH 117, 3.1 µg/mL (≈ 5.96 µM); in the assay on S. aureus HH 127, 6.3 µg/mL (≈ 12.1 µM); in the assay with Kleb. pneumo. SK 4200 (setting [3]) it was 12.5 µg/mL (≈ 24 µM). The MIC with Pseudo. sp. HH 63 was above 200 µg/mL; with Proteus morgani 179, 50 µg/mL (≈ 96.1 µM). Moreover, the ED50 in the assay on Kleb. pneumo. 4200 (po, Kleb. pneumo. 4200, p.o.) was found to be 4 mg/kg; in the assay on Kleb. pneumo. 4200 (sc, Kleb. pneumo. 4200, s.c.), 0.92 mg/kg.

Take `O=C(O)CCn1nnnc1SCC1=C(C(=O)O)N2C(=O)C(NC(=O)CSC(F)(F)F)[C@H]2SC1` (some centres unmarked) [XV, 7-Trifluoromethylmercaptoacetamido-3-[1-(2-carboxyethyl)tetrazol-5-ylthiomethyl]-3-cephem-4-carboxylic acid]: the MIC was determined as 50 µg/mL (≈ 94.6 µM) in the assay with Strep. Faecalis HH 34358; 0.8 µg/mL (≈ 1.51 µM) against S. aureus SK 23390 (SK23390); 6.3 µg/mL (≈ 11.9 µM) in assay [1]; 200 µg/mL (≈ 378 µM) in the assay with Serra. Marc. ATCC 13880; 0.4 µg/mL (≈ 0.757 µM) in the assay on Kleb. pneumo. SK 1200; 25 µg/mL (≈ 47.3 µM) with S. villaluz. The MIC with Salmonella ATCC 12176 worked out at 0.4 µg/mL (≈ 0.757 µM); in the assay with Entero. cloacae HH 31254 (setting [6]), 0.8 µg/mL (≈ 1.51 µM); in the assay with E. coli SK 12140 (read-out: MIC), 0.8 µg/mL (≈ 1.51 µM); in the assay on E. coli HH 33779 it was 3.1 µg/mL (≈ 5.87 µM); with Shigella HH 117 it was 0.8 µg/mL (≈ 1.51 µM); in the assay on S. aureus HH 127 it was 1.6 µg/mL (≈ 3.03 µM). Further, the results for the minimal inhibitory concentration (MIC) in the assay with Kleb. pneumo. SK 4200 (setting [3]) and in the assay with Proteus morgani 179 were 0.8 µg/mL (≈ 1.51 µM) and above 200 µg/mL, respectively. The ED50 with E. coli 12140 (setting [4]) is above 50 mg/kg; with E. coli 12140 (setting [5]), 1.56 mg/kg; in the assay with Kleb. pneumo. 4200 (po, Kleb. pneumo. 4200, p.o.), 46 mg/kg; with Kleb. pneumo. 4200 (sc, Kleb. pneumo. 4200, s.c.) it was 1.12 mg/kg.

Regarding `NC(=O)Cn1nnnc1SCC1=C(C(=O)O)N2C(=O)C(NC(=O)CSC(F)(F)F)[C@H]2SC1` (some centres unmarked) [XVII, 7-Trifluoromethylmercaptoacetamido-3-(1-carbamoylmethyltetrazol-5-ylthiomethyl)-3-cephem-4-carboxylic acid], the MIC with Strep. Faecalis HH 34358 was found to be 25 µg/mL (≈ 48.7 µM); with S. aureus SK 23390 (SK23390) it was 0.4 µg/mL (≈ 0.779 µM); in [1] it was 1.6 µg/mL (≈ 3.12 µM); in the assay on Serra. Marc. ATCC 13880, 100 µg/mL (≈ 195 µM); in the assay on Kleb. pneumo. SK 1200 it was 0.4 µg/mL (≈ 0.779 µM); in the assay with S. villaluz it was 12.5 µg/mL (≈ 24.3 µM). The MIC in the assay with Salmonella ATCC 12176 came to 0.4 µg/mL (≈ 0.779 µM); in the assay on Entero. cloacae HH 31254 (setting [6]) it was 0.8 µg/mL (≈ 1.56 µM); with E. coli SK 12140, 0.4 µg/mL (≈ 0.779 µM); in the assay on E. coli HH 33779, 3.1 µg/mL (≈ 6.04 µM); with Shigella HH 117, 0.2 µg/mL (≈ 0.389 µM); in the assay on S. aureus HH 127, 0.4 µg/mL (≈ 0.779 µM). Further, the MIC in the assay with Kleb. pneumo. SK 4200 (setting [3]) is 0.8 µg/mL (≈ 1.56 µM); in the assay on Proteus morgani 179 it was 200 µg/mL (≈ 389 µM). In addition, the median effective dose (ED50) in the assay on E. coli 12140 (setting [4]) came to 6.25 mg/kg; in the assay with E. coli 12140 (setting [5]) it was 0.28 mg/kg; in the assay on Kleb. pneumo. 4200 (po, Kleb. pneumo. 4200, p.o.) it was 15.5 mg/kg; in the assay on Kleb. pneumo. 4200 (sc, Kleb. pneumo. 4200, s.c.), 0.78 mg/kg.

`O=C(O)Cn1nnnc1SCC1=C(C(=O)O)N2C(=O)C(NC(=O)CSC(F)(F)F)[C@H]2SC1` (some centres unmarked) [XVIII, 7-Trifluoromethylmercaptoacetamido-3-(1-carboxymethyltetrazol-5-ylthiomethyl)-3-cephem-4-carboxylic acid]: the MIC is 100 µg/mL (≈ 194 µM) with Strep. Faecalis HH 34358; 3 µg/mL (≈ 5.83 µM) with S. aureus SK 23390 (setting [2]); 13 µg/mL (≈ 25.3 µM) in assay [1]; above 200 µg/mL with Serra. Marc. ATCC 13880; 0.4 µg/mL (≈ 0.777 µM) with Kleb. pneumo. SK 1200; 100 µg/mL (≈ 194 µM) in the assay with S. villaluz. The MIC in the assay on Salmonella ATCC 12176 stood at 0.8 µg/mL (≈ 1.55 µM); in the assay on Entero. cloacae HH 31254 (setting [6]), 3 µg/mL (≈ 5.83 µM); with E. coli SK 12140 (read-out: MIC), 0.8 µg/mL (≈ 1.55 µM); with E. coli HH 33779 it was 6 µg/mL (≈ 11.7 µM); in the assay on Shigella HH 117 it was 3 µg/mL (≈ 5.83 µM); with S. aureus HH 127 it was 3 µg/mL (≈ 5.83 µM). The MIC in the assay on Kleb. pneumo. SK 4200 was 0.4 µg/mL (≈ 0.777 µM); with Proteus morgani 179, 200 µg/mL (≈ 389 µM). The 50% effective dose (ED50) was 3.1 mg/kg in the assay on E. coli 12140 (setting [5]) and 0.4 mg/kg with Kleb. pneumo. 4200 (sc, Kleb. pneumo. 4200, s.c.).
